Reference: patent US20260337189A1, “Cryptolepine Salt Derivative, Preparation Method, and Use Thereof” (ZHEJIANG XINNONG CHEMICAL CO., LTD., priority 2023, published 2026)

How the values were obtained:
[1] = system: tobacco Mosaic virus (TMV); test: Live protection function against tobacco Mosaic virus (TMV); assay type: in vivo; conditions: for Relative inhibition rate, live protection function: 500 mg/L, tobacco Xanthi nc, sprayed 24 h before inoculation, virus 10 μg/mL, 3 days; for inhibition at 500 µg/mL: Tobacco mosaic virus, read-out: Relative inhibition rate, live protection function
Protocol: (§1) Determination of anti-tobacco Mosaic virus (TMV) activity by the following procedure:
(§2) After weighing, cryptolepine salt derivative, ningnanmycin and the original drug of ribavirin were dissolved in DMF to obtain 1×10^5 μg/mL mother solution, and then diluted to the required concentration with 1%. Tween 80 aqueous solution.
(§3) Select the 3-5 leaf stage of tobacco Xanthi nc with uniform growth, spray the whole plant, repeat each treatment 3 times, and set 1%. Tween80 aqueous solution as control. 24 h later, the leaf surface was coated with emery (500 mesh), the disease venom was dipped with a brush, and the whole leaf surface was gently rubbed twice along the direction of the branch pulse by using the brush, the leaf was supported by palm of hand, the virus concentration was 10 μg/mL, and the leaf was washed by water after inoculation. After 3 days, the number of disease spots was recorded and the prevention and control effect was calculated.
(§4) Relative inhibition rate (%)=[(number of dead spots of control group-number of dead spots of test sample group)/number of dead spots of control group]×100%.

rice sheath blight = test: Test of resistance to rice sheath blight (bactericidal activity test); assay type: in vivo; conditions: for Resistance to rice sheath blight: 400 mg/L, rice seedlings, sprayed 24 h before inoculation, 6 days after inoculation, visual inspection; for bactericidal activity against rice sheath blight: live pot test, Table 5, 400 mg/L
Protocol: Bactericidal activity test, the determination procedure is as follows:
Test of resistance to rice sheath blight: Select uniformly growing rice seedlings and spray them on the leaves at the set concentration, set a water spraying group as blank control, every treatment was repeated twice. After 24 h, the rice seedlings were inoculated with rice sheath blight strains and placed at room temperature (25±4° C.) for normal management after inoculation. The prevention and control effect was investigated by visual inspection 6 days after inoculation.

[2] = system: tobacco Mosaic virus (TMV); test: Living passivation activity test against tobacco Mosaic virus (TMV); assay type: in vivo; conditions: 500 mg/L, tobacco Xanthi nc, sample mixed with virus juice 30 min, virus 20 μg/mL, 3 days; for inhibition at 500 µg/mL: Tobacco mosaic virus, read-out: Relative inhibition rate, living passivation activity test
Protocol: as §1, §2
(§5) Select the 3-5 leaf stage of tobacco Xanthi nc with uniform growth, mix the test sample agent with the same volume of virus juice to passivate for 30 min, friction inoculation, virus concentration 20 μg/mL, the leaf was washed with running water after inoculation, repeat 3 times, set 1%. Tween 80 aqueous solution as control. 3 days later, the number of disease spots was calculated.
as §4
(§6) Anti-tobacco Mosaic virus passivation activity test of all compounds was at a treatment dose of 500 μg/mL. The positive control was the commercial anti-plant virus agent viriazole.

[3] = system: tobacco Mosaic virus (TMV); test: Live treatment effect against tobacco Mosaic virus (TMV); assay type: in vivo; conditions: 500 mg/L, tobacco Xanthi nc, sprayed after inoculation, virus 10 μg/mL, 3 days; for inhibition at 500 µg/mL: Tobacco mosaic virus, 72 h, read-out: Relative inhibition rate, live treatment effect
Protocol: as §1, §2
(§7) Select the 3-5 leaf stage of tobacco Xanthi nc with uniform growth, use a brush to vaccinate the virus in the whole leaf, the virus concentration is 10 μg/mL, and the leaf was washed with running water after inoculation. After the leaves were dried, the whole plant was sprayed with test sample, repeated 3 times every treatment, and 1%. Tween 80 aqueous solution was set as control. After 3 days, the number of disease spots was recorded and the prevention and control effect was calculated.
as §4

Plasmodium falciparum = conditions: cited from earlier work
[4] = system: tobacco Mosaic virus (TMV); test: Anti-tobacco Mosaic virus (TMV) activity, overall comparison of Test Example 1; assay type: in vivo; conditions: 500 μg/mL; Table 4
Protocol: as §1, §2, §3, §7, §5, §4, §6

Structure (SMILES) | Relative inhibition rate, live protection function [1] [%] | Resistance to rice sheath blight (rice sheath blight) [%] | bactericidal activity against rice sheath blight (rice sheath blight) | Relative inhibition rate, living passivation activity test [2] [%] | Relative inhibition rate, live treatment effect [3] [%] | activity against Plasmodium falciparum compared with Chloroquine (Plasmodium falciparum) | inhibition at 500 µg/mL [1] [%] | inhibition at 500 µg/mL [2] [%] | inhibition at 500 µg/mL [3] [%] | TMV activity compared with ribavirin [4] | anti-TMV activity compared with commercial Ningnanmycin [4]
C[n+]1c2ccccc2c(NCCCN2CCCCC2)c2[nH]c3ccccc3c21 [Example 47] | 36.4 ± 2.8 | 45 ± 5 | more than 50% | 35.7 ± 0.3 | 33.3 ± 2.0 |  |  |  |  |  | 
Cc1ccc(S(=O)(=O)n2c3ccc(F)cc3c3c2cc2ccccc2[n+]3C)cc1 [Example 4] | 21.6 ± 3.4 | 60 ± 0 | more than 50% | 14.1 ± 1.3 | 18.6 ± 1.2 |  |  |  |  |  | 
Cn1c2c3ccccc3nc-2cc2ccccc21 [cryptolepine] |  |  |  |  |  | comparable activity against Plasmodium falciparum to Chloroquine |  |  |  |  | 
C[n+]1c2ccccc2c(NCC2CCNCC2)c2[nH]c3ccccc3c21.[I-] [Example 42] |  | 25 ± 5 |  |  |  |  | 28.1 ± 3 | 25.1 ± 0.2 | 30.2 ± 2.1 |  | 
C[n+]1c2ccccc2c(NC2CCCC2)c2[nH]c3ccccc3c21 [Example 29] | 38.6 ± 4.6 | 30 ± 0 |  | 30.5 ± 0.9 | 36.5 ± 2.3 |  |  |  |  |  | 
Cc1ccc(S(=O)(=O)n2c3ccc(I)cc3c3c2cc2ccccc2[n+]3C)cc1.[Cl-] [Example 7] |  | 40 ± 0 |  |  |  |  | 44.5 ± 0.4 | 47.7 ± 3.1 | 43 ± 3.5 | better TMV activity than the ribavirin | 
CCCCCNc1c2ccccc2[n+](C)c2c1[nH]c1ccccc12 [Example 24] |  | 30 ± 0 |  |  |  |  | 36.9 ± 3.7 | 35.2 ± 1 | 30.3 ± 0.8 |  | 
CCCCCCCCCCCCNc1c2ccccc2[n+](C)c2c1[nH]c1ccccc12 [Example 25] |  | 20 ± 0 |  |  |  |  | 27.3 ± 3 | 35.1 ± 0.1 | 22.1 ± 1.1 |  | 
C[n+]1c2ccccc2c(NCCCN)c2[nH]c3ccccc3c21.[I-] [Example 33] |  | 40 ± 0 |  |  |  |  | 57.9 ± 4.6 | 49.8 ± 3.1 | 51.7 ± 3.6 | better TMV activity than the ribavirin | comparable to that of commercial Ningnanmycin
